This is an account of results in PubChem BioAssay (NCI).

What is called GI50 is the concentration that inhibits growth by half. Broadly, the TGI is the concentration at which net growth stops. Read a high TGI as less potent growth arrest.

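Compound exposure: 48 hours, 5 concentrations, 96-well plates. GI50 = concentration required for 50% inhibition of growth. TGI marks complete inhibition of growth.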

Some test systems named below: HCC-2998 colon; M14 melanoma; SR leukemia; EKVX NSCLC; PC-3 prostate; OVCAR-3 ovarian; COLO 205 colon; SW-620 colon.
Common to all, as to assay: DTP human tumour cell line panel, 48 h

As for `C=C1C(=O)O[C@H]2[C@H]1CC/C(Cn1cc(Cc3c[nH]c4ccccc34)nn1)=C\CC[C@@]1(C)O[C@@H]21`, the GI50 in the assay on HCC-2998 colon is 2.18 µM; with M14 melanoma, 1.31 µM; with SR leukemia, 0.389 µM; in the assay on EKVX NSCLC, 1.84 µM; in the assay on PC-3 prostate, 1.88 µM; with OVCAR-3 ovarian, 1.73 µM. Also, the values for the GI50 in the assay with COLO 205 colon and with SW-620 colon were 1.83 µM and 1.74 µM, respectively. The TGI in the assay on HCC-2998 colon worked out at 3.92 µM; with M14 melanoma, 3.07 µM; with SR leukemia it was 8.32 µM; in the assay on EKVX NSCLC it was 3.98 µM; with PC-3 prostate, 3.81 µM; in the assay with OVCAR-3 ovarian it was 3.15 µM. The TGI came to 3.75 µM in the assay with COLO 205 colon and 3.56 µM with SW-620 colon.

For the compound `c1ccc2cc(Cn3cc[n+](Cc4ccc5ccccc5c4)c3)ccc2c1`, the GI50 in the assay with HCC-2998 colon is 1.05 µM; in the assay with M14 melanoma it was 1.43 µM; with SR leukemia, 1.03 µM; in the assay on EKVX NSCLC, 2.51 µM; with PC-3 prostate it was 0.535 µM; in the assay with OVCAR-3 ovarian, 0.675 µM. For the same compound, the 50% growth inhibitory concentration (GI50) in the assay with COLO 205 colon is 0.4 µM; with SW-620 colon, 2.05 µM. In addition, the TGI with HCC-2998 colon was found to be 4.38 µM; in the assay with M14 melanoma, 8.34 µM; in the assay on SR leukemia it was 3.42 µM; in the assay on EKVX NSCLC, 15.5 µM; in the assay on PC-3 prostate, 5.6 µM; with OVCAR-3 ovarian it was 2.18 µM. In addition, the results for the TGI with COLO 205 colon and in the assay with SW-620 colon were 1.67 µM and 13.6 µM, respectively.

In the case of `Cc1cc(C(=O)Nc2cc(Oc3ccc4nc(NC(=O)C5CC5)cn4n3)ccc2C)n(C)n1`, the GI50 in the assay on HCC-2998 colon is above 10 µM; in the assay with M14 melanoma, 5.51 µM; in the assay with SR leukemia it was 2.26 µM; in the assay with EKVX NSCLC, above 10 µM; with PC-3 prostate, above 10 µM; with OVCAR-3 ovarian, above 10 µM. In addition, the GI50 in the assay with COLO 205 colon and in the assay with SW-620 colon was above 10 µM throughout. In addition, the concentration for total growth inhibition (TGI) with HCC-2998 colon, in the assay with M14 melanoma, with SR leukemia, with EKVX NSCLC, in the assay on PC-3 prostate and with OVCAR-3 ovarian was above 10 µM throughout. Also, the TGI in the assay with COLO 205 colon and in the assay on SW-620 colon was above 10 µM in each case.

For `COC12C=C/C(=C(/C(=O)OCCSc3ccnn3C)C(=O)CCCCCCCCC3(OC)C=C/C(=C(/C(=O)OCCSc4ccnn4C)C(=O)CCCCCCCC1)O3)O2`, the GI50 in the assay on HCC-2998 colon is 0.584 µM; in the assay with M14 melanoma it was 0.873 µM; in the assay with SR leukemia, 0.886 µM; in the assay with EKVX NSCLC, 1.15 µM; in the assay on PC-3 prostate, 1.51 µM; in the assay with OVCAR-3 ovarian, 0.966 µM. Moreover, the GI50 in the assay with COLO 205 colon was 0.814 µM; with SW-620 colon, 1.07 µM. In addition, the TGI in the assay with HCC-2998 colon was 1.11 µM; in the assay on M14 melanoma, 2.4 µM; in the assay on SR leukemia it was above 32.5 µM; with EKVX NSCLC it was 12.1 µM; with PC-3 prostate, above 32.5 µM; in the assay with OVCAR-3 ovarian it was 2.77 µM. In addition, the TGI in the assay with COLO 205 colon was 2.15 µM; with SW-620 colon, 5.38 µM.

As to `c1cc(CN2CCCNCCNCCCNCC2)ccc1CN1CCCNCCNCCCNCC1`, the GI50 in the assay with HCC-2998 colon, with M14 melanoma, in the assay on SR leukemia, in the assay with EKVX NSCLC, in the assay on PC-3 prostate and in the assay with OVCAR-3 ovarian was above 100 µM each time. The GI50 with COLO 205 colon and in the assay with SW-620 colon was above 100 µM in each case. Also, the concentration for total growth inhibition (TGI) in the assay with HCC-2998 colon, with M14 melanoma, in the assay on SR leukemia, in the assay on EKVX NSCLC, in the assay on PC-3 prostate and in the assay on OVCAR-3 ovarian was above 100 µM in each case. Moreover, the TGI with COLO 205 colon and with SW-620 colon was above 100 µM in each case.

Take `CCN1C(=O)N(CC)C2C1NN=c1s/c(=C\c3cccs3)c(=O)n12` (stereo unspecified): the GI50 with HCC-2998 colon is 0.257 µM; with M14 melanoma, 0.105 µM; with SR leukemia, 0.0576 µM; in the assay with PC-3 prostate, 0.12 µM; with OVCAR-3 ovarian it was 0.0462 µM; in the assay on COLO 205 colon, 0.154 µM. For the same compound, in the assay with SW-620 colon, the GI50 was 0.0667 µM. Besides, the TGI in the assay with HCC-2998 colon, in the assay with M14 melanoma, in the assay on SR leukemia, with EKVX NSCLC, in the assay with PC-3 prostate and in the assay with COLO 205 colon was above 100 µM each time. The same compound returned a TGI with SW-620 colon above 100 µM.

With `O=C(O)/C=C/c1ccc[c]([Sb](=[O])([OH])[OH])c1`, the GI50 with HCC-2998 colon, in the assay with M14 melanoma, with SR leukemia, in the assay with EKVX NSCLC, in the assay on PC-3 prostate and with OVCAR-3 ovarian was above 100 µM in each case. The GI50 with SW-620 colon is above 100 µM. Besides, the TGI with HCC-2998 colon, in the assay on M14 melanoma, with SR leukemia, in the assay with EKVX NSCLC, with PC-3 prostate and in the assay with OVCAR-3 ovarian was above 100 µM in each case. The same compound displayed a TGI in the assay with SW-620 colon above 100 µM.

In the case of `Nc1ncnc2c1c(-c1ccc(Oc3ccccc3)cc1)nn2C[C@H]1SSC[C@@H]1O`, the GI50 with HCC-2998 colon was 3.3 µM; with M14 melanoma, 0.071 µM; in the assay on SR leukemia, 0.165 µM; with EKVX NSCLC, 0.365 µM; in the assay on PC-3 prostate it was 3.01 µM; in the assay with OVCAR-3 ovarian it was 0.251 µM. In the assay with COLO 205 colon, the GI50 is 2.06 µM. Further, the TGI with HCC-2998 colon was determined as 27.6 µM; in the assay on M14 melanoma, 0.206 µM; with SR leukemia it was 0.627 µM; in the assay on EKVX NSCLC, 12.1 µM; in the assay on PC-3 prostate it was 18.2 µM; in the assay on OVCAR-3 ovarian it was 0.684 µM. The compound further had a TGI in the assay with COLO 205 colon of 9.82 µM.

In the case of `COc1cc(-c2nn(-c3cccc(NC(=O)NCCNS(=O)(=O)c4ccc(Cl)cc4)c3)cc2-c2ccncc2)ccc1Cl`, the GI50 in the assay on HCC-2998 colon was 1.69 µM; in the assay with M14 melanoma, 0.423 µM; in the assay on SR leukemia, 0.466 µM; in the assay with EKVX NSCLC it was 2.15 µM; with PC-3 prostate it was 0.49 µM; in the assay with OVCAR-3 ovarian, 0.371 µM. The GI50 in the assay on SW-620 colon was 0.524 µM. The TGI is 5.09 µM in the assay on HCC-2998 colon; 2.42 µM with M14 melanoma; 3.53 µM in the assay on SR leukemia; above 100 µM with EKVX NSCLC; 9.55 µM with PC-3 prostate; 1.55 µM in the assay with OVCAR-3 ovarian. The compound also registered a TGI in the assay with SW-620 colon of 30.3 µM.
